Source: ChEMBL document CHEMBL2434921, “New synthetic aliphatic sulfonamido-quaternary ammonium salts as anticancer chemotherapeutic agents” (2013)
The source made the active and inactive calls. The calls are words filed in the database; no cut-off is given here.

Assays:
[1] = test system: PC-3; experiment: Growth of human PC3 cells at 10 uM after 48 hrs by SRB assay; details: PC-3, 48 h
[2] = test system: ACHN; experiment: Growth inhibition of human ACHN cells at 3 uM after 48 hrs by SRB assay; values are per cent of control
[3] = test system: HCT-15; experiment: Growth of human HCT15 cells at 0.3 uM after 48 hrs by SRB assay; details: HCT-15, 48 h
[4] = test system: ACHN; experiment: Growth of human ACHN cells at 0.3 uM after 48 hrs by SRB assay
[5] = test system: NUGC-3; experiment: Growth of human NUGC3 cells at 0.1 uM after 48 hrs by SRB assay; details: NUGC-3, 48 h
[6] = test system: PC-3; experiment: Growth inhibition of human PC3 cells at 0.1 uM after 48 hrs by SRB assay; values are per cent of control; details: PC-3, 48 h
[7] = test system: MDA-MB-231; experiment: Growth of human MDA-MB-231 cells at 0.1 uM after 48 hrs by SRB assay; details: MDA-MB-231, 48 h
[8] = test system: ACHN; experiment: Growth inhibition of human ACHN cells after 48 hrs by SRB assay; format: functional
[9] = test system: NCI-H23; experiment: Growth inhibition of human NCI-H23 cells after 48 hrs by SRB assay; format: functional; details: NCI-H23, 48 h
[10] = test system: MDA-MB-231; experiment: Growth of human MDA-MB-231 cells at 1 uM after 48 hrs by SRB assay; details: MDA-MB-231, 48 h
[11] = test system: MDA-MB-231; experiment: Growth of human MDA-MB-231 cells at 10 uM after 48 hrs by SRB assay; details: MDA-MB-231, 48 h
[12] = test system: HCT-15; experiment: Growth inhibition of human HCT15 cells after 48 hrs by SRB assay; format: functional; details: HCT-15, 48 h
[13] = test system: HCT-15; experiment: Growth inhibition of human HCT15 cells at 10 uM after 48 hrs by SRB assay; values are per cent of control; details: HCT-15, 48 h
[14] = test system: MDA-MB-231; experiment: Growth inhibition of human MDA-MB-231 cells after 48 hrs by SRB assay; format: functional; details: MDA-MB-231, 48 h
[15] = test system: HCT-15; experiment: Growth inhibition of human HCT15 cells at 1 uM after 48 hrs by SRB assay; values are per cent of control; details: HCT-15, 48 h
[16] = test system: HCT-15; experiment: Growth inhibition of human HCT15 cells at 0.1 uM after 48 hrs by SRB assay; values are per cent of control; details: HCT-15, 48 h
[17] = test system: NCI-H23; experiment: Growth of human NCI-H23 cells at 0.3 uM after 48 hrs by SRB assay; details: NCI-H23, 48 h
[18] = test system: MDA-MB-231; experiment: Growth of human MDA-MB-231 cells at 3 uM after 48 hrs by SRB assay; values are per cent of control; details: MDA-MB-231, 48 h
[19] = test system: NUGC-3; experiment: Growth of human NUGC3 cells at 1 uM after 48 hrs by SRB assay; details: NUGC-3, 48 h
[20] = test system: NCI-H23; experiment: Growth inhibition of human NCI-H23 cells at 1 uM after 48 hrs by SRB assay; values are per cent of control; details: NCI-H23, 48 h
[21] = test system: PC-3; experiment: Growth inhibition of human PC3 cells at 0.3 uM after 48 hrs by SRB assay; values are per cent of control; details: PC-3, 48 h
[22] = test system: HCT-15; experiment: Growth of human HCT15 cells at 3 uM after 48 hrs by SRB assay; details: HCT-15, 48 h
[23] = test system: PC-3; experiment: Growth inhibition of human PC3 cells at 1 uM after 48 hrs by SRB assay; values are per cent of control; details: PC-3, 48 h
[24] = test system: NCI-H23; experiment: Growth of human NCI-H23 cells at 10 uM after 48 hrs by SRB assay; details: NCI-H23, 48 h
[25] = test system: ACHN; experiment: Growth inhibition of human ACHN cells at 1 uM after 48 hrs by SRB assay; values are per cent of control
[26] = test system: PC-3; experiment: Growth inhibition of human PC3 cells after 48 hrs by SRB assay; format: functional; details: PC-3, 48 h
[27] = test system: NCI-H23; experiment: Growth inhibition of human NCI-H23 cells at 3 uM after 48 hrs by SRB assay; values are per cent of control; details: NCI-H23, 48 h
[28] = test system: NUGC-3; experiment: Growth of human NUGC3 cells at 0.3 uM after 48 hrs by SRB assay; details: NUGC-3, 48 h
[29] = molecular target: Rho-related GTP-binding protein RhoB (Homo sapiens) (UniProt P62745); experiment: Transactivation of RhoB (unknown origin) transfected in human HeLa cells at 5 uM measured over 10 secs by dual luciferase reporter gene assay; format: cell-based
Chain of Rho-related GTP-binding protein RhoB (Homo sapiens) (P62745 whole entry): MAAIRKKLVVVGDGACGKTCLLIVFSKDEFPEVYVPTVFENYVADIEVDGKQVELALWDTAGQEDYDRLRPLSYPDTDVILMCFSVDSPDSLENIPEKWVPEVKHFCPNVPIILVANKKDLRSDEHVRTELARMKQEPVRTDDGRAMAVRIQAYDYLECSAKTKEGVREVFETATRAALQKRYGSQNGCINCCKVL

[30] = test system: PC-3; experiment: Growth inhibition of human PC3 cells at 3 uM after 48 hrs by SRB assay; values are per cent of control; details: PC-3, 48 h
[31] = test system: MDA-MB-231; experiment: Growth inhibition of human MDA-MB-231 cells at 0.3 uM after 48 hrs by SRB assay; values are per cent of control; details: MDA-MB-231, 48 h
[32] = test system: NUGC-3; experiment: Growth inhibition of human NUGC3 cells after 48 hrs by SRB assay; format: functional; details: NUGC-3, 48 h
[33] = test system: NUGC-3; experiment: Growth inhibition of human NUGC3 cells at 10 uM after 48 hrs by SRB assay; values are per cent of control; details: NUGC-3, 48 h
[34] = test system: ACHN; experiment: Growth of human ACHN cells at 10 uM after 48 hrs by SRB assay
[35] = test system: ACHN; experiment: Growth of human ACHN cells at 0.1 uM after 48 hrs by SRB assay
[36] = test system: NUGC-3; experiment: Growth inhibition of human NUGC3 cells at 3 uM after 48 hrs by SRB assay; values are per cent of control; details: NUGC-3, 48 h
[37] = test system: NCI-H23; experiment: Growth inhibition of human NCI-H23 cells at 0.1 uM after 48 hrs by SRB assay; values are per cent of control; details: NCI-H23, 48 h

Row | GI50 [8] [nM] | GI50 [9] [nM] | GI50 [12] [nM] | GI50 [14] [nM] | Compound | growth, % of control at 10 µM [1] [%] | growth, % of control at 3 µM [2] [%] | growth, % of control at 0.3 µM [3] [%] | growth, % of control at 0.3 µM [4] [%] | growth, % of control at 0.1 µM [5] [%] | growth, % of control at 0.1 µM [6] [%] | growth, % of control at 0.1 µM [7] [%] | growth, % of control at 1 µM [10] [%] | growth, % of control at 10 µM [11] [%] | growth, % of control at 10 µM [13] [%] | growth, % of control at 1 µM [15] [%] | growth, % of control at 0.1 µM [16] [%] | growth, % of control at 0.3 µM [17] [%] | growth, % of control at 3 µM [18] [%] | growth, % of control at 1 µM [19] [%] | growth, % of control at 1 µM [20] [%] | other results
1 | 1290 | 910 | 1200 | 910 | CCCCCCCCCCCCCCCCS(=O)(=O)NCCC[N+](C)(C)CC | -32.4 | 48.4 | 91.7 | 90.6 | 74.4 | 84.1 | 72.6 | 75.5 | 9.2 | 16.3 | 78 | 90 | 82.9 | 39.3 | 41.8 | 73.4 | growth, % of control at 0.3 µM [21]: 79.7%; growth, % of control at 3 µM [22]: 35.3%; growth, % of control at 1 µM [23]: 56.3%; growth, % of control at 10 µM [24]: -21.5%; growth, % of control at 1 µM [25]: 76.6%; GI50 [26]: 560 nM; growth, % of control at 3 µM [27]: 32.2%; growth, % of control at 0.3 µM [28]: 73.5%; Activity [29]: Active; growth, % of control at 3 µM [30]: -11.8%; growth, % of control at 0.3 µM [31]: 75.7%; GI50 [32]: 320 nM; growth, % of control at 10 µM [33]: -34.3%; growth, % of control at 10 µM [34]: -6.7%; growth, % of control at 0.1 µM [35]: 87.7%; growth, % of control at 3 µM [36]: 7.5%; growth, % of control at 0.1 µM [37]: 81.3%
2 | 2270 | 690 | 1350 | 2790 | CCCCCCCCCCCCCCCCS(=O)(=O)NCC(C)(C)C[N+](C)(C)CC | -11.1 | 102 | 138 | 100 | 115 | 109 | 108 | 88.6 | 27.1 | 21.3 | 63.2 | 141 | 92.1 | 66 | 43.8 | 50.5 | growth, % of control at 0.3 µM [21]: 99.5%; growth, % of control at 3 µM [22]: 40.2%; growth, % of control at 1 µM [23]: 69.4%; growth, % of control at 10 µM [24]: -10.9%; growth, % of control at 1 µM [25]: 99.6%; GI50 [26]: 790 nM; growth, % of control at 3 µM [27]: 30.4%; growth, % of control at 0.3 µM [28]: 108%; growth, % of control at 3 µM [30]: 12.9%; growth, % of control at 0.3 µM [31]: 103%; GI50 [32]: 570 nM; growth, % of control at 10 µM [33]: 0%; growth, % of control at 10 µM [34]: 104%; growth, % of control at 0.1 µM [35]: 108%; growth, % of control at 3 µM [36]: 18.8%; growth, % of control at 0.1 µM [37]: 100%
3 | 1300 | 590 | 1610 | 990 | CCCCCCCCCCCCCCS(=O)(=O)N(C)CC[N+](C)(C)CC | -12.3 | 50.1 | 96.8 | 104 | 96.8 | 96.5 | 99 | 63.1 | 18.2 | 21.7 | 76.3 | 98.2 | 94.6 | 36.4 | 43.3 | 86.6 | growth, % of control at 0.3 µM [21]: 95.3%; growth, % of control at 3 µM [22]: 41.1%; growth, % of control at 1 µM [23]: 57.1%; growth, % of control at 10 µM [24]: 16.3%; growth, % of control at 1 µM [25]: 77.1%; GI50 [26]: 340 nM; growth, % of control at 3 µM [27]: 53.6%; growth, % of control at 0.3 µM [28]: 95.6%; Activity [29]: Active; growth, % of control at 3 µM [30]: 13.3%; growth, % of control at 0.3 µM [31]: 91.6%; GI50 [32]: 300 nM; growth, % of control at 10 µM [33]: 10.1%; growth, % of control at 10 µM [34]: 25%; growth, % of control at 0.1 µM [35]: 105%; growth, % of control at 3 µM [36]: 19%; growth, % of control at 0.1 µM [37]: 92.5%
